Assay results as given in patent US4472386A, “5-Fluoro-(β-uridine or 2'-deoxy-β-uridine) derivatives, a process for producing the same and a carcinostatic agent containing the same” (Toyama Chemical Co., Ltd., priority 1978, dated 1984).
Like-named read-outs stand apart in the source and are kept apart here.

Tests used:
[1] = system: Ehrlich ascites carcinoma; assay: Inhibition of Ehrlich solid tumor in mice, intraperitoneal administration (Table 1); type: in vivo, ddY mice; set-up: response vs control in vivo: dose or concentration left out as unconfirmed; details: for response vs control in vivo: day 14
Procedure: (§1) 1. Experiment on the inhibition of Ehrlich solid tumor
Ehrlich ascites carcinoma was subcutaneously inoculated into the right inguinal region of ddY mice (5 weeks old, male, 8 mice per group) with 3×10^6 cells per mouse.
24 Hours after the inoculation, a test drug suspended or dissolved in 5% HCO 60 (a product manufactured by Nikkol) was administered intraperitoneally successively once daily for 7 days. To the control group, the same quantity as above of 5% HCO 60 was intraperitoneally administered in the same manner. Fourteen days after the inoculation, the tumor was excised and weighed, from which the average tumor weight ratio between the test group and the control group (T/C) was determined.

[2] = system: Ehrlich ascites carcinoma; assay: Inhibition of Ehrlich solid tumor in mice, oral administration starting six days after inoculation (Table 2); type: in vivo, ddY mice; details: for T/C (average tumor weight ratio between test group and control group): day 21
Procedure: as §1
Ehrlich ascites carcinoma was subcutaneously inoculated into the inguinal region of ddY mice (5 weeks old, male, 8 mice per group) with 3×10^6 cells per mouse. Six days after the inoculation, a test drug dissolved or suspended in 0.5% CMC solution was administered orally to the test group successively once daily for 10 days, while the same quantity as above of 0.5% CMC solution was orally administered to the control group. Twenty one days after the inoculation, the tumor was excised and weighed, from which the average tumor weight ratio between the test group and the control group (T/C) was determined.

[3] = system: Sarcoma-180 ascites tumor; assay: Inhibition of Sarcoma-180 ascites tumor in mice, intravenous administration (Table 3); type: in vivo, ddY mice; details: for T/C (average tumor weight ratio between test group and control group): Sarcoma-180, day 10
Procedure: 2. Experiment on the inhibition of Sarcoma-180 ascites tumor
Sarcoma-180 ascites tumor was subcutaneously inoculated into the right inguinal region of ddY mice (5 weeks old, male, 8 mice per group) with 3×10^6 cells per mouse. Twenty four hours after the inoculation,a test drug dissolved in 10% polyethylene glycol was administered intravenously to the test group successively once daily for 7 days, while the same quantity as above of 10% polyethylene glycol was intravenously administered to the control group. Ten days after the inoculation, the tumor was excised and weighed, from which the average tumor weight ratio between the test group and the control group (T/C) was determined.

[4] = Acute toxicity test (b), oral LD50 (Table 4); details: mouse, in vivo
Procedure: (b) The test compound was suspended in 0.25% CMC solution and administered orally to SLC-ddY mice (5 weeks old, male, 6 mice per group). The number of dead mice was counted over the subsequent 3 weeks. LD50 value was calculated according to the method of Van der Waerden.

[5] = system: Ehrlich ascites carcinoma; assay: Carcinostatic test, oral, ED values (Table 5); type: in vivo, ddY mice; details: Mus musculus, 336 h
Procedure: Ehrlich ascites carcinoma was subcutaneously inoculated into the right inguinal region of ddY mice (5 weeks old, male, 8 mice per group) with 8×10^6 cells per mouse. Twenty four hours after the inoculation,5, 10, 20 or 40 mg/kg of a test drug suspended or dissolved in polyethylene glycol was administered orally to the test group successively once daily for 10 days, while the same quantity as above of 10% polyethylene glycol was administered orally to the control group. Fourteen days after the inoculation, the tumor was excised and weighed, from which the average tumor weight ratio between the test group and the control group (T/C) was calculated. ED value was determined by the least square method.

[6] = system: SLC-ddY mice; details: mouse, in vivo
Description: (a) The test compound was suspended in 0.25% CMC solution and administered intraperitoneally to SLC-ddY mice (5 weeks old, male, 6 mice per group). The number of dead mice was counted over the subsequent three weeks.

[7] = 40 mg/kg i.p. once daily for 7 days
[8] = Mus musculus, ip, 336 h, Ehrlich, read-out: T/C (average tumor weight ratio between test group and control group)
[9] = 5 mg/kg i.v. once daily for 7 days
[10] = oral, 3 weeks, Van der Waerden method
[11] = 60 mg/kg orally once daily for 10 days
[12] = 60 mg/kg orally once daily for 10 days from day 6, Ehrlich
[13] = 10 mg/kg i.v. once daily for 7 days
[14] = oral once daily for 10 days, least square method, read-out: ED30
[15] = oral once daily for 10 days, least square method, read-out: ED40

SMILES | Body weight change [1, 7] | response vs control in vivo [1, 8] [%] | other results
O=C(c1ccccc1I)n1c(=O)c(F)cn([C@H]2C[C@H](O)[C@@H](CO)O2)c1=O [compound 8] | +7.6 g | 33.5 | 
O=C(Nc1ccc(C(=O)n2c(=O)c(F)cn([C@H]3C[C@H](O)[C@@H](CO)O3)c2=O)cc1)C(Cl)Cl [compound 22] | +6.5 g | 41.6 | 
O=c1[nH]cc(F)c(=O)[nH]1 [5-Fu, 5-fluorouracil, reference compound] |  |  | Body weight change ([1]; 20 mg/kg i.p. once daily for 7 days): +4.1 g; response vs control in vivo at 20 mg/kg ([1]; Mus musculus, Ehrlich, ip, 336 h, read-out: T/C (average tumor weight ratio between test group and control group)): 49.9%; Body weight change ([2]; 30 mg/kg orally once daily for 10 days): -3.8 g; T/C (average tumor weight ratio between test group and control group) ([2]; 30 mg/kg orally once daily for 10 days from day 6, Ehrlich): 39.7%; Body weight change [3, 9]: +4.0 g; No. of surviving mice/No. of total mice used [3, 9]: 8/8; T/C (average tumor weight ratio between test group and control group) [3, 9]: 59.7%; LD50 at 504 h [4, 10]: 259 mg/kg; ED30 ([5]; po): 15 mg/kg; ED40 ([5]; po): 25 mg/kg
O=C(c1cc(Br)cs1)n1c(=O)c(F)cn([C@H]2C[C@H](O)[C@@H](CO)O2)c1=O [compound 23] | +5.3 g | 38.8 | 
O=C(c1ccc(Br)o1)n1c(=O)c(F)cn([C@H]2C[C@H](O)[C@@H](CO)O2)c1=O [compound 24] | +4.7 g | 42.5 | 
O=C(c1cccc(Cl)c1)n1c(=O)c(F)cn([C@H]2C[C@H](O)[C@@H](CO)O2)c1=O [compound 11] | +7.6 g | 34.3 | Number of dead mice [6]: no dead mice
O=C(c1ccc(F)cc1)n1c(=O)c(F)cn([C@H]2C[C@H](O)[C@@H](CO)O2)c1=O [compound 2] | +6.8 g | 23.2 | Body weight change [2, 11]: -0.4 g; T/C (average tumor weight ratio between test group and control group) [2, 12]: 36.8%; Body weight change [3, 13]: +4.1 g; No. of surviving mice/No. of total mice used [3, 13]: 8/8; T/C (average tumor weight ratio between test group and control group) [3, 13]: 46.2%; Number of dead mice [6]: no dead mice; LD50 at 504 h ([4]; po): 2070 mg/kg; ED30 [5, 14]: 11 mg/kg; ED40 [5, 15]: 20 mg/kg
COC(=O)c1ccc(C(=O)n2c(=O)c(F)cn([C@H]3C[C@H](O)[C@@H](CO)O3)c2=O)cc1 [compound 12] | +6.2 g | 36.9 | 
O=C(c1ccccc1Cl)n1c(=O)c(F)cn([C@H]2C[C@H](O)[C@@H](CO)O2)c1=O [compound 7] | +6.0 g | 33.1 | 
O=C(c1cccc(C(F)(F)F)c1)n1c(=O)c(F)cn([C@H]2C[C@H](O)[C@@H](CO)O2)c1=O [compound 25] | +5.3 g | 43 | 
COc1cc(N)c(Cl)cc1C(=O)n1c(=O)c(F)cn([C@H]2C[C@H](O)[C@@H](CO)O2)c1=O [compound 10] | +7.3 g | 34.2 | 
O=C(c1c(F)cccc1F)n1c(=O)c(F)cn([C@H]2C[C@H](O)[C@@H](CO)O2)c1=O [compound 29] | +7.9 g | 41.3 | 
CC(=O)OC[C@H]1O[C@@H](n2cc(F)c(=O)n(C(=O)c3ccc4c(c3)OCO4)c2=O)C[C@@H]1OC(C)=O [compound 30] | +6.1 g | 30.1 | 
N#Cc1ccc(C(=O)n2c(=O)c(F)cn([C@H]3C[C@H](O)[C@@H](CO)O3)c2=O)cc1 [compound 13] | +7.2 g | 36.9 | Number of dead mice [6]: no dead mice
O=C(c1ccc([N+](=O)[O-])cc1)n1c(=O)c(F)cn([C@H]2C[C@H](O)[C@@H](CO)O2)c1=O [compound 19] | +5.9 g | 41.5 | 
O=C(CBr)Nc1ccc(C(=O)n2c(=O)c(F)cn([C@H]3C[C@H](O)[C@@H](CO)O3)c2=O)cc1 [compound 26] | +2.3 g | 35.3 | 
Cc1ccccc1C(=O)n1c(=O)c(F)cn([C@H]2C[C@H](O)[C@@H](CO)O2)c1=O [compound 6] | +7.3 g | 32.3 | 
O=C(c1ccco1)n1c(=O)c(F)cn([C@H]2C[C@H](O)[C@@H](CO)O2)c1=O [compound 15] | +7.9 g | 39.1 | 
COc1cccc(OC)c1C(=O)n1c(=O)c(F)cn([C@H]2C[C@H](O)[C@@H](CO)O2)c1=O [compound 18] | +7.8 g | 41.5 | Number of dead mice [6]: no dead mice
Cc1ccsc1C(=O)n1c(=O)c(F)cn([C@H]2C[C@H](O)[C@@H](CO)O2)c1=O [compound 16] | +6.4 g | 40.7 | 
O=C(c1cccc2ccccc12)n1c(=O)c(F)cn([C@H]2C[C@H](O)[C@@H](CO)O2)c1=O [compound 9] | +6.7 g | 33.5 | 
CN(C)c1ccc(C(=O)n2c(=O)c(F)cn([C@H]3C[C@H](O)[C@@H](CO)O3)c2=O)cc1 [compound 21] | +4.7 g | 32.4 | LD50 at 504 h [4, 10]: ≥ 2540 mg/kg
O=C(c1ccc(F)cc1F)n1c(=O)c(F)cn([C@H]2C[C@H](O)[C@@H](CO)O2)c1=O [compound 28] | +5.9 g | 21.7 | 
O=C(c1ccc2c(c1)OCO2)n1c(=O)c(F)cn([C@H]2C[C@H](O)[C@@H](CO)O2)c1=O [compound 27] | +6.4 g | 27.1 | Body weight change [2, 11]: -0.5 g; T/C (average tumor weight ratio between test group and control group) [2, 12]: 30%; Body weight change [3, 13]: +4.0 g; No. of surviving mice/No. of total mice used [3, 13]: 8/8; T/C (average tumor weight ratio between test group and control group) [3, 13]: 45.3%; Number of dead mice [6]: no dead mice; LD50 at 504 h ([4]; po): ≥ 2290 mg/kg; ED30 [5, 14]: 6.4 mg/kg; ED40 [5, 15]: 12 mg/kg
O=Cc1ccc(C(=O)n2c(=O)c(F)cn([C@H]3C[C@H](O)[C@@H](CO)O3)c2=O)cc1 [compound 14] | +7.1 g | 38.1 | 
O=C(c1ccccc1F)n1c(=O)c(F)cn([C@H]2C[C@H](O)[C@@H](CO)O2)c1=O [compound 20] | +7.4 g | 42.8 | 
O=C(CCl)Nc1cccc(C(=O)n2c(=O)c(F)cn([C@H]3C[C@H](O)[C@@H](CO)O3)c2=O)c1 [compound 4] | +4.4 g | 25.2 | 
O=C(c1cc(O)cc(O)c1)n1c(=O)c(F)cn([C@H]2C[C@H](O)[C@@H](CO)O2)c1=O [compound 17] | +7.9 g | 41 | 
O=C(CCl)Nc1ccc(C(=O)n2c(=O)c(F)cn([C@H]3C[C@H](O)[C@@H](CO)O3)c2=O)cc1 [compound 5] | +4.8 g | 27.5 | Body weight change [2, 11]: -4.1 g; T/C (average tumor weight ratio between test group and control group) [2, 12]: 34.0%
